Where two headings read alike, the source gives them in different places.
Experiments:
[1] = In vitro metabolic stability in mouse liver microsomes; type: in vitro ADME
Description: The test compound (1 μM) was incubated at 37°C with mouse liver microsomes (XenoTech) at a protein concentration of 0.4 mg/mL. The metabolic reaction was initiated by the addition of a NADPH-regenerating system and quenched at various time points over a 60 min incubation period by the addition of acetonitrile. Control samples (without NADPH) were included (and quenched at 2, 30, 60 min) to monitor for potential degradation in the absence of cofactor. The degradation half-life and in vitro intrinsic clearance (in vitro CLint) in microsomes were calculated using the apparent first order degradation rate constant for substrate depletion ([Obach, 1999]).
Compound quantification was performed using a Xevo G2 QTOF (in vitro metabolic stability) using positive electrospray ionisation under MS^E mode or a Waters Xevo TQD (mouse exposure) mass spectrometer using positive electrospray ionisation multiple-reaction monitoring mode. Compounds were eluted using an acetonitrile-water/0.05% formic acid gradient at a flow rate of 0.4 mL/min operating over a 4 min cycle on a Waters Acquity UPLC using a Supelco Ascentis Express RP C8 column (50 × 2.1 mm, 2.7 μm). Extraction was performed by precipitation using acetonitrile (1:1 volume ratio for microsomes and 2:1 volume ratio for plasma samples) followed by centrifugation. Compound concentrations were quantified against calibration standards prepared in an appropriate matrix to match the test samples (e.g. plasma or microsomes).

[2] = system: HAP1, HAP1 PPARA KO, and HAP1 PPARG KO cell lines; assay: MTT cell metabolic activity assay, HAP1 lines; type: cell-based, human
Description: Cells were harvested and seeded in 96-flat well plates (Corning) at a density of 5 x 10^4 cells/mL overnight. Media was removed and 100 μL media with GW6471 or GW9662 at indicated concentrations was added to each well. Cell viability and toxicity were measured at 48 h. Cells were incubated with 50 μL of a 2 mg/mL solution of (3-(4,5-dimethyl-thiazole-2-yl)-2,5-[…] tetrazolium (MTT, Sigma-Aldrich) in PBS for 4 h and then exposed to 100 μL dimethyl sulfoxide (DMSO; Sigma-Aldrich). Cell viability was measured by absorption at 570 nm in a microplate spectrophotometer (Spectromax 250 plate reader). Results are shown as relative cell viability.

PPARα [3] = molecular target: T1, PPARα (Homo sapiens, UniProt Q07869); assay: LanthaScreen TR-FRET binding assay, PPARα; conditions: 2 h incubation, mean of 3 replicates ± SEM
T1 sequence (Q07869 239-466 limits assumed): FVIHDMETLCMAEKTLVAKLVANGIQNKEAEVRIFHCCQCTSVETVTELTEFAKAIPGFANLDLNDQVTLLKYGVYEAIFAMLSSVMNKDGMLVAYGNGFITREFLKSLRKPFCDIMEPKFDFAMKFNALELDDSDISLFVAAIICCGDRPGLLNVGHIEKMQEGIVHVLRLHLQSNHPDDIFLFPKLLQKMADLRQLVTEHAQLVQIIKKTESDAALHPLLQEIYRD
Description: The LanthaScreen™ TR-FRET binding assay was performed following the manufacturer's guidelines (PV4894, Invitrogen) as follows, 20 mM stock solution of the ligand or control in DMSO were serially diluted using 100% DMSO to produce a range of concentrations from 100 μM to 1 pM. The test compound solutions were mixed with the reaction buffer in a 1 (ligand) in 10 (reaction buffer) dilution for a final 2X ligand concentration. This was mixed with the reaction components (glutathione S-transferase (GST)-PPPARγLBD (0.5 nM)/, terbium (Tb)-labelled anti-GST antibody (5 nM) and Fluormone pan-PPAR green (5 nM for PPARγ; 20 nM for PPARα) at room temperature in a ratio of 8 μLl 2X ligand solution: 4 μLl of 4XFluormone: and 4 μLl 4X GST-PPPARγLBD/terbium (Tb)-labelled anti-GST antibody to produce a final reaction mixture volume of 16 μL. The concentration of DMSO in the final reaction mixture was 5%. The reaction mixture was kept at room temperature for 2 h prior to recording the TR-FRET emission spectra using a CLARIOstar Plus microplate reader (BMG Labtech). […] Results are expressed as the ratio of fluorescence intensity at 520 nm (Fluormone emission) and 490 nm (Tb emission). […] For each compound three serial dilutions were prepared and measured separately. The IC50 and SEM values were determined using a sigmoidal dose-response equation with varying slope using GraphPad Prism.

renal cell carcinoma = system: renal cell carcinoma; parameters: method as in Abu Aboud et al., 2015; conditions: 20 mg/kg; ref Abu Aboud et al., 2015; cited from earlier work
[4] = system: HAP1, HAP1 PPARA KO, and HAP1 PPARG KO cell lines; assay: Scratch wound migration assay, HAP1 lines; type: cell-based, human; conditions: 1 and 10 μM
Description: Cells were harvested and seeded in Incucyte®ImageLock 96-well plates (Essen BioScience) at a density of 10 x 10^4 cells/mL overnight. A scratch wound was performed on the confluent cells with the 96-pin IncuCyte WoundMaker Tool (Essen BioScience). For migration assays, cells were washed with PBS once before adding 100 μL media with GW6471 at indicated concentrations. For matrigel invasion assays, cells were washed with PBS once before adding 50 μL of matrigel basement membrane matrix (FAL356231; Corning, NY, USA) at 8 mg/mL; lastly 100 μL media with GW6471 at indicated concentrations were added on top of the matrigel. Wounded cells were incubated in the IncuCyte ZOOM® at 37°C with 5% CO2. Data were analysed using the Incucyte® Scratch Wound Cell Migration Software Module and calculating the Relative Wound Density (%) (RWD) for both migration and invasion assays.

PPARα [5] = molecular target: T1, PPARα; parameters: expressed in transfected cells; host or cells: HG5LN (HeLa-derived, GAL4RE-luciferase); method as in Xu et al., 2002; conditions: inhibition of agonism by 10 nM GW409544, ref Xu et al., 2002, read-out: Functionality, Lit. IC50; cited from earlier work
[6] = system: head and neck paraganglioma; parameters: method as in Florio et al., 2017; conditions: 24 μM, by cell-cycle arrest and caspase-dependent apoptosis; ref Florio et al., 2017; cited from earlier work

CCC(=O)NC[C@H](Cc1ccc(OCCc2nc(-c3ccccc3)oc2C)cc1)N/C(C)=C\C(=O)c1ccc(C(F)(F)F)cc1 [GW6471]
In vitro CLint ([1]; NADPH-activated mouse liver microsomes): 556 μL/min/mg protein
Degradation half-life ([1]; NADPH-activated mouse liver microsomes, 1 μM, 0.4 mg/mL protein): 3 min
Stability in the absence of NADPH ([1]; mouse liver microsomes without NADPH): stable
Cellular proliferation (MTT) ([2]; HAP1, HAP1 PPARA KO, HAP1 PPARG KO, 0.391-100 μM): inhibited cellular proliferation at micromolar concentrations
Growth inhibition compared between parental and PPARA/PPARG KO cells ([2]; HAP1 versus HAP1 PPARA KO and HAP1 PPARG KO): identical
IC50 (PPARα [3]): 95.3 ± 42 nM
Tumor reduction in vivo (renal cell carcinoma): significant tumor reduction
Effect on migration compared between PPARA KO, PPARG KO and wild-type cells [4]: not significantly different
In vitro migration ([4]; HAP1 lines): concentration-dependent effect on in vitro migration
IC50 (PPARα [5]): 240 nM
Cell viability and growth [6]: reduced cell viability and growth
